From US20090298820A1, “3-SUBSTITUTED-1H-PYRROLO[2,3-B]PYRIDINE AND 3-SUBSTITUTED-1H-PYRROLO[3,2-B]PYRIDINE COMPOUNDS, THEIR USE AS MTOR KINASE AND PI3 KINASE INHIBITORS, AND THEIR SYNTHESES” (Wyeth, priority 2008, published 2009)
pIC50: −log10 of the molar value.

Tests used:
PI3Kα = PI3Kα (Homo sapiens, UniProt P42336); experiment: PI3K-alpha fluorescence polarization assay; format: biochemical; settings: read-out: PI3Kα Median IC50
PI3Kγ = PI3Kγ (Homo sapiens, UniProt P48736); experiment: PI3K-gamma fluorescence polarization assay; format: biochemical; settings: read-out: PI3Kγ Median IC50
PI3Kγ, sequence (P48736 whole entry, species assumed): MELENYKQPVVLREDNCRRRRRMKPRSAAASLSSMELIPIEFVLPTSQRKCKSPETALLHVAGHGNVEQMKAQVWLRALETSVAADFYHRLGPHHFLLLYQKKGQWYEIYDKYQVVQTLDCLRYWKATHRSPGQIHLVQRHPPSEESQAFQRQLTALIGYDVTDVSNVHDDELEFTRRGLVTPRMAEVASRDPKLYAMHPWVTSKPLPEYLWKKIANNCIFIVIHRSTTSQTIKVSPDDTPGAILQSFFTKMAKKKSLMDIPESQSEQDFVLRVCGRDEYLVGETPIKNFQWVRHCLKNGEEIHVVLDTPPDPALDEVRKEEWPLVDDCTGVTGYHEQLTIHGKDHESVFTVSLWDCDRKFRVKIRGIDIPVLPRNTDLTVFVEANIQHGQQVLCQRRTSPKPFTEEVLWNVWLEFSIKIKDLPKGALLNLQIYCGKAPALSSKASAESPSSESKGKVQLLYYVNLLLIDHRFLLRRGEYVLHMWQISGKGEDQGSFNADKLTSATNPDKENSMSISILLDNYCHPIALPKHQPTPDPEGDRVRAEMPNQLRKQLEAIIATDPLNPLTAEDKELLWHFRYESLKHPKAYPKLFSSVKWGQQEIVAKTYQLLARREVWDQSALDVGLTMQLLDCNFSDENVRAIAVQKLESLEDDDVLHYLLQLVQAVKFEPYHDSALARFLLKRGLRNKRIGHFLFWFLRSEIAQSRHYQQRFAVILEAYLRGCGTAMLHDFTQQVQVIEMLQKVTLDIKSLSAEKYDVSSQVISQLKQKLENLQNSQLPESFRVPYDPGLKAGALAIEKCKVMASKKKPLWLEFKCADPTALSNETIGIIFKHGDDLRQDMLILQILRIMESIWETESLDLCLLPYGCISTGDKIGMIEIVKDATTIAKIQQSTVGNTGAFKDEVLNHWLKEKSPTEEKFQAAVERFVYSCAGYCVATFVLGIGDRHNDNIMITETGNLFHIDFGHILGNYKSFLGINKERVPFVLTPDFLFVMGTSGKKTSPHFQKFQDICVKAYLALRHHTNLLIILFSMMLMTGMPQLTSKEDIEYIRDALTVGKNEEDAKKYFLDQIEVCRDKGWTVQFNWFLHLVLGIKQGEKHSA

mTOR = mTOR (Homo sapiens, UniProt P42345); experiment: mTOR enzyme assay (DELFIA format, His6-S6K substrate); format: biochemical; settings: read-out: mTOR Kinase Median IC50

PI3Kα, sequence (P42336 whole entry, species assumed): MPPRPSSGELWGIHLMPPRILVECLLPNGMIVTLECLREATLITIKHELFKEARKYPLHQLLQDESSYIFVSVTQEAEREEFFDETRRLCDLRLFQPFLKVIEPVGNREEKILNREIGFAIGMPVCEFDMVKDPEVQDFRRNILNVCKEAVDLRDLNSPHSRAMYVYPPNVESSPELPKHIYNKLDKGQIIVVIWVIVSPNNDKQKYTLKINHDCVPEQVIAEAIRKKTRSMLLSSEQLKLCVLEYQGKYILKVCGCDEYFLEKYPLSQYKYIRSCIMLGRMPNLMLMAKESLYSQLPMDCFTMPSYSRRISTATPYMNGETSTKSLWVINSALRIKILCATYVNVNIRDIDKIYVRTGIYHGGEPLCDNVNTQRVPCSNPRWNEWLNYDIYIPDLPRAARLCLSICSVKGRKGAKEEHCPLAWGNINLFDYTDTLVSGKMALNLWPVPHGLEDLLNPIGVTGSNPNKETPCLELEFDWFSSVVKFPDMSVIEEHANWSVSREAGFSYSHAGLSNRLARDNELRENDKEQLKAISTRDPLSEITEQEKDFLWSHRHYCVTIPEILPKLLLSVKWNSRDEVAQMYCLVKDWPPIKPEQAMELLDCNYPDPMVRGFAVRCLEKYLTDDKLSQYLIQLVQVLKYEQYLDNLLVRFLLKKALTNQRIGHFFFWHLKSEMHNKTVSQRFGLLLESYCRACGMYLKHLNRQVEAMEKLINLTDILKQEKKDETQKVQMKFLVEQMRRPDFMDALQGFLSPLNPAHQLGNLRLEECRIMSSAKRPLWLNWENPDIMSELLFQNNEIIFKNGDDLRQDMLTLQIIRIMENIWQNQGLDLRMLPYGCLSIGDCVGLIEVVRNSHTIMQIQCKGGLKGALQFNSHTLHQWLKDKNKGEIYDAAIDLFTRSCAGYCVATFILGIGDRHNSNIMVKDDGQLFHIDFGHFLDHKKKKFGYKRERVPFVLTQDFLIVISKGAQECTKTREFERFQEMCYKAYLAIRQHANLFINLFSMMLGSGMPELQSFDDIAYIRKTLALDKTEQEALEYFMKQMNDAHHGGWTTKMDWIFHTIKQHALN
PI3Kα, sequence (P27986 whole entry partner, species assumed): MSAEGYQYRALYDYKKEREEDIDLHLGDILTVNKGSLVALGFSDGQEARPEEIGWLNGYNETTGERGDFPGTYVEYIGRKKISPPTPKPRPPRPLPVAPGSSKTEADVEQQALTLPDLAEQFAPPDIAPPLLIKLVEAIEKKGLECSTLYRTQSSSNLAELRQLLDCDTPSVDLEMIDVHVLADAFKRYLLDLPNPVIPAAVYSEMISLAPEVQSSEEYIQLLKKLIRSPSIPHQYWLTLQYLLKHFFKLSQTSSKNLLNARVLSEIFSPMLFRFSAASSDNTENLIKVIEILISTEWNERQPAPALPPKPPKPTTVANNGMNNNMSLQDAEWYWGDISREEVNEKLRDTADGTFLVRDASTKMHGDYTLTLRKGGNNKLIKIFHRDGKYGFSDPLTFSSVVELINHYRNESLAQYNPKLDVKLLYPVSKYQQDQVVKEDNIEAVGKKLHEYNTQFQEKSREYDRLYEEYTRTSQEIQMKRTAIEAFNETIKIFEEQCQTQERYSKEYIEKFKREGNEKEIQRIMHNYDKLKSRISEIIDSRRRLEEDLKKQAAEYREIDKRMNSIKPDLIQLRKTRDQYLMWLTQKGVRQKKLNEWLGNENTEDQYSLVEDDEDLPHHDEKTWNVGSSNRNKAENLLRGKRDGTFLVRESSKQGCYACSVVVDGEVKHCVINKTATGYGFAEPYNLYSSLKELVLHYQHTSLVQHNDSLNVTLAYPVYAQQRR

Row | pIC50 (PI3Kα) | pIC50 (PI3Kγ) | pIC50 (mTOR) | melting point | Structure (SMILES)
1 | 7.07 | 6.91 | 8.89 | 280 °C | CC1CN(c2ccnc3c2c(/C=C2\Oc4cccc(O)c4C2=O)cn3C)CC(C)O1 (stereo not drawn) [Compound 93, (2Z)-2-{[4-(2,6-dimethylmorpholin-4-yl)-1-methyl-1H-pyrrolo[2,3-b]pyridin-3-yl]methylene}-4-hydroxy-1-benzofuran-3(2H)-one]
2 | 7.13 | 7.11 | 8.03 | 252 to 260 °C (dec.) | Cn1cc(/C=C2\Oc3cccc(O)c3C2=O)c2c(-c3ccc(N4CC5CCC(C4)O5)cc3)ccnc21 [Compound 157, (2Z)-4-hydroxy-2-({1-methyl-4-[4-(8-oxa-3-azabicyclo[3.2.1]oct-3-yl)phenyl]-1H-pyrrolo[2,3-b]pyridin-3-yl}methylidene)-1-benzofuran-3(2H)-one]
3 | 7.04 | 6.50 | 7.99 | 310 to 318 °C | Cn1cc(/C=C2\Oc3cccc(O)c3C2=O)c2c(-c3cccc(S(C)(=O)=O)c3)ccnc21 [Compound 75, (2Z)-4-hydroxy-2-({1-methyl-4-[3-(methylsulfonyl)phenyl]-1H-pyrrolo[2,3-b]pyridin-3-yl}methylene)-1-benzofuran-3(2H)-one]
4 | 5.63 | 5.52 | 6.89 | 285 to 289 °C | Cn1cc(/C=C2\Oc3ccc(C(=O)O)cc3C2=O)c2c(N3CC4CCC(C3)O4)ccnc21 [Compound 197, (2Z)-2-{[1-methyl-4-(8-oxa-3-azabicyclo[3.2.1]oct-3-yl)-1H-pyrrolo[2,3-b]pyridin-3-yl]methylidene}-3-oxo-2,3-dihydro-1-benzofuran-5-carboxylic acid]
5 | < 5.00 | < 5.00 | 7.23 | 233 to 235 °C | Cn1cc(/C=C2\Oc3ccc(NC(=O)OCCO)cc3C2=O)c2c(-c3ccccc3)ccnc21 [Compound 60, 2-hydroxyethyl {(2Z)-2-[(1-methyl-4-phenyl-1H-pyrrolo[2,3-b]pyridin-3-yl)methylene]-3-oxo-2,3-dihydro-1-benzofuran-5-yl}carbamate]
6 | 7.01 | 5.98 | 7.33 | 325 to 327 °C (dec.) | Cn1cc(/C=C2\Oc3cc(O)cc(F)c3C2=O)c2c(-c3ccccc3)ccnc21 [Compound 32, (2Z)-4-fluoro-6-hydroxy-2-[(1-methyl-4-phenyl-1H-pyrrolo[2,3-b]pyridin-3-yl)methylene]-1-benzofuran-3(2H)-one]
7 | 7.00 | 6.20 | 7.70 | 340 to 350 °C | CN(C)Cc1ccc(-c2ccnc3c2c(/C=C2\Oc4cccc(O)c4C2=O)cn3C)cc1 [Compound 113, (2Z)-2-[(4-{4-[(dimethylamino)methyl]phenyl}-1-methyl-1H-pyrrolo[2,3-b]pyridin-3-yl)methylene]-4-hydroxy-1-benzofuran-3(2H)-one]
8 | 6.98 | 6.57 | 8.72 | 285 to 290 °C | Cn1cc(/C=C2\Oc3cccc(O)c3C2=O)c2c(N3CCSCC3)ccnc21 [Compound 102, (2Z)-4-hydroxy-2-[(1-methyl-4-thiomorpholin-4-yl-1H-pyrrolo[2,3-b]pyridin-3-yl)methylene]-1-benzofuran-3(2H)-one]
9 | 6.24 | 6.25 | 8.02 | 247 to 255 °C | CNC(=O)Nc1ccc2c(c1)C(=O)/C(=C/c1cn(C)c3nccc(N4CC5CCC(C4)O5)c13)O2 [Compound 131, 1-methyl-3-[(2Z)-2-{[1-methyl-4-(8-oxa-3-azabicyclo[3.2.1]oct-3-yl)-1H-pyrrolo[2,3-b]pyridin-3-yl]methylene}-3-oxo-2,3-dihydro-1-benzofuran-5-yl]urea]
